Tests used:
[1] = target: T1, Protein kinase C iota type (Homo sapiens) (UniProt P41743); test: Inhibition of PKCiota (unknown origin) at 10 uM after 120 mins P33 radiolabeled kinase activity assay
T1 sequence (whole entry): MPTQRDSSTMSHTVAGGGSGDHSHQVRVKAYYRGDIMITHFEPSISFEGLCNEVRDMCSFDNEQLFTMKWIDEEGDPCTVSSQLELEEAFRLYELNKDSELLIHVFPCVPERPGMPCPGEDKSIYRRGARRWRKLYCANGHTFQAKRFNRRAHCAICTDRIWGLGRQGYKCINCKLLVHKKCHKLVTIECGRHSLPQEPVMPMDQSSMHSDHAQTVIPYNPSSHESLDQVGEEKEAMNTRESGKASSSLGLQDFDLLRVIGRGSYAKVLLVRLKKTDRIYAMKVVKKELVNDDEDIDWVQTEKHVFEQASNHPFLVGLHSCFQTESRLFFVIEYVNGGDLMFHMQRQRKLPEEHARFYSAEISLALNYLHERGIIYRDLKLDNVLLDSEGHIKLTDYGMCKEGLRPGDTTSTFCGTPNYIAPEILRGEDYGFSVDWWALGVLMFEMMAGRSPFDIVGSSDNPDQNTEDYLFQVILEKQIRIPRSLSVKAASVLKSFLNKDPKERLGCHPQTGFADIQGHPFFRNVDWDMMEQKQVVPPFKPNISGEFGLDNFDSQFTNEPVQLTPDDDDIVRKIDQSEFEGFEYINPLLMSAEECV

[2] = target: T2, Aurora kinase C (Homo sapiens) (UniProt Q9UQB9); test: Inhibition of Aurora C (unknown origin) at 10 uM after 120 mins P33 radiolabeled kinase activity assay
T2 sequence (whole entry): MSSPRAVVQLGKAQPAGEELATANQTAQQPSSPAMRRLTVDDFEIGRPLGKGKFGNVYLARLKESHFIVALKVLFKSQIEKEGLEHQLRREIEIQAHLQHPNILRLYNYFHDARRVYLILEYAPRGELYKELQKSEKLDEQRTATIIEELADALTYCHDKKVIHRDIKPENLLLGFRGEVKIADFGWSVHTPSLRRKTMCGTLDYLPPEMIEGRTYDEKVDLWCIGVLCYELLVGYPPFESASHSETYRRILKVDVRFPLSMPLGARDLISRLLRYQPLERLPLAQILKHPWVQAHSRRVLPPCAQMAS

[3] = target: Dual specificity testis-specific protein kinase 1 (Homo sapiens) (UniProt Q15569); test: Inhibition of TESK1 (unknown origin) at 10 uM after 120 mins P33 radiolabeled kinase activity assay
Sequence of Dual specificity testis-specific protein kinase 1 (Homo sapiens) (Q15569 whole entry, looked up): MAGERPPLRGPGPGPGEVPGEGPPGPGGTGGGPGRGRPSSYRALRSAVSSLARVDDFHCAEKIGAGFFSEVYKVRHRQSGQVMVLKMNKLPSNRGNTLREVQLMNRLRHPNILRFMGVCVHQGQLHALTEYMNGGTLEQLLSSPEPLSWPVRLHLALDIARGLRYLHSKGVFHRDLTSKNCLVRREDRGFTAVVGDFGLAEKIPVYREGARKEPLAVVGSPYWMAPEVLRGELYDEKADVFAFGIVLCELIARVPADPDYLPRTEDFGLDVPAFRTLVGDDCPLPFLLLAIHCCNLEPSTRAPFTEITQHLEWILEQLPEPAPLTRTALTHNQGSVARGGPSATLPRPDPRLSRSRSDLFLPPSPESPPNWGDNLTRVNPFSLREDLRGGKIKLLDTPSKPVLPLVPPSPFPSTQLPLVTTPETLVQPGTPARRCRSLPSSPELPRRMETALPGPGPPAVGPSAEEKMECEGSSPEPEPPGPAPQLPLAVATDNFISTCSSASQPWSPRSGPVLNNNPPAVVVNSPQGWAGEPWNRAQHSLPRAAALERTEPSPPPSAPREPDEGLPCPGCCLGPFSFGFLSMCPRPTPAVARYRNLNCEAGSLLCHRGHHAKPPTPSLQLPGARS

[4] = target: G protein-coupled receptor kinase 4 (Homo sapiens) (UniProt P32298); test: Inhibition of GRK4 (unknown origin) at 10 uM after 120 mins P33 radiolabeled kinase activity assay
Sequence of G protein-coupled receptor kinase 4 (Homo sapiens) (P32298 whole entry, looked up): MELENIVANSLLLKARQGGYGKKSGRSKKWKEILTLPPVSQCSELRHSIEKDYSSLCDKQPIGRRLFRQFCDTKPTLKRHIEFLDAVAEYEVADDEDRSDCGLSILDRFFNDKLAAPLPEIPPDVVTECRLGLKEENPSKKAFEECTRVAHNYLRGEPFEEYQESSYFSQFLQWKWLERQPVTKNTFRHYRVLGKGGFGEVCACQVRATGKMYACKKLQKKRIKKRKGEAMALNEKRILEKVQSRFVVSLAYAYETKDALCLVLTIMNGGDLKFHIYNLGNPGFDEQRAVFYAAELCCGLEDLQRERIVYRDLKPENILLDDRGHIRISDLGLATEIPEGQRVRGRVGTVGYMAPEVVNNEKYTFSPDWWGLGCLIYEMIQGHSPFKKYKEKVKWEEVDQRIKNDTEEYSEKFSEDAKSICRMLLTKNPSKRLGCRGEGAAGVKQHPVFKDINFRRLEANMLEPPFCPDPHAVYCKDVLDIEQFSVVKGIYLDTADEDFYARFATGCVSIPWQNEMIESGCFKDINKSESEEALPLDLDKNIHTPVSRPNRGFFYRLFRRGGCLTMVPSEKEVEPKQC

[5] = target: T3, Inhibitor of nuclear factor kappa-B kinase subunit epsilon (Homo sapiens) (UniProt Q14164); test: Inhibition of IKKepsilon (unknown origin) at 10 uM after 120 mins P33 radiolabeled kinase activity assay
T3 sequence (whole entry): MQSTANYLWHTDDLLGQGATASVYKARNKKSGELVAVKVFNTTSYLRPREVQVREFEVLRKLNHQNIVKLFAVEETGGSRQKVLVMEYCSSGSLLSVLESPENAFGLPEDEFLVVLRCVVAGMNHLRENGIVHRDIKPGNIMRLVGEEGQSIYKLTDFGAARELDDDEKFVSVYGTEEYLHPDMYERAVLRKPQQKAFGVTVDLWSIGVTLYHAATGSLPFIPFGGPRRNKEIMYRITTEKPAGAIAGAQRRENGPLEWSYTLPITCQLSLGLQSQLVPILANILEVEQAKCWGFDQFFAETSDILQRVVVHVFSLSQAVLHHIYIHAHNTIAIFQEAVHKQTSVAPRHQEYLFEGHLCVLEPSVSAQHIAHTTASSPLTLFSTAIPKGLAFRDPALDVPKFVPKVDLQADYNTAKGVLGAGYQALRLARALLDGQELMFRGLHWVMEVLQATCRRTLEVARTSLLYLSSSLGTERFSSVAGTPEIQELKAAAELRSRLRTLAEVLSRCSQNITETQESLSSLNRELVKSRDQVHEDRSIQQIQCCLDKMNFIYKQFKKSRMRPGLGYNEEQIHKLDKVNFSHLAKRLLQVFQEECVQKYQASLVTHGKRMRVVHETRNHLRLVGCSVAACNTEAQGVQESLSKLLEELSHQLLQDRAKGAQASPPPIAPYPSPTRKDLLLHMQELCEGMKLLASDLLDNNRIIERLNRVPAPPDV

[6] = target: Tyrosine-protein kinase BTK (Homo sapiens) (UniProt Q06187); test: Inhibition of BTK (unknown origin) at 10 uM after 120 mins P33 radiolabeled kinase activity assay
Sequence of Tyrosine-protein kinase BTK (Homo sapiens) (Q06187 whole entry): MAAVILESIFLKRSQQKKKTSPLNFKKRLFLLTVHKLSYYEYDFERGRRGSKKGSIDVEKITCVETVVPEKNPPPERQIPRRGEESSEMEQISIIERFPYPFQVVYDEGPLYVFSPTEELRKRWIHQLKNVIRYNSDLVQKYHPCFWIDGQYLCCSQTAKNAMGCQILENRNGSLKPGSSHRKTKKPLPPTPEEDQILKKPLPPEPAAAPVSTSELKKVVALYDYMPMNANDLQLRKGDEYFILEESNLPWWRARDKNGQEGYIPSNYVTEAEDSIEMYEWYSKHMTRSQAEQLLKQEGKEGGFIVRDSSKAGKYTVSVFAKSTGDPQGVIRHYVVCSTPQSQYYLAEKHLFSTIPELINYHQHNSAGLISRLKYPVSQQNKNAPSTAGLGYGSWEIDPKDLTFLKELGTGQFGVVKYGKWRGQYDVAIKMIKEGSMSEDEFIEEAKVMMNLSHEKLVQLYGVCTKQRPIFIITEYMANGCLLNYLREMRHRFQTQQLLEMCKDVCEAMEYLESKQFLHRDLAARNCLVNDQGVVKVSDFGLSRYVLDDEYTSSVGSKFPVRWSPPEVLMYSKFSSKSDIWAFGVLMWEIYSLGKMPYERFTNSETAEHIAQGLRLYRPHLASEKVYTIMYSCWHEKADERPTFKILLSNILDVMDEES

[7] = target: Serine/threonine-protein kinase 38 (Homo sapiens) (UniProt Q15208); test: Inhibition of STK38 (unknown origin) at 10 uM after 120 mins P33 radiolabeled kinase activity assay
[8] = target: Insulin receptor (Homo sapiens) (UniProt P06213); test: Inhibition of IR (unknown origin) at 10 uM after 120 mins P33 radiolabeled kinase activity assay
[9] = target: T4, Mitogen-activated protein kinase 13 (Homo sapiens) (UniProt O15264); test: Inhibition of P38delta (unknown origin) at 10 uM after 120 mins P33 radiolabeled kinase activity assay
T4 sequence (whole entry): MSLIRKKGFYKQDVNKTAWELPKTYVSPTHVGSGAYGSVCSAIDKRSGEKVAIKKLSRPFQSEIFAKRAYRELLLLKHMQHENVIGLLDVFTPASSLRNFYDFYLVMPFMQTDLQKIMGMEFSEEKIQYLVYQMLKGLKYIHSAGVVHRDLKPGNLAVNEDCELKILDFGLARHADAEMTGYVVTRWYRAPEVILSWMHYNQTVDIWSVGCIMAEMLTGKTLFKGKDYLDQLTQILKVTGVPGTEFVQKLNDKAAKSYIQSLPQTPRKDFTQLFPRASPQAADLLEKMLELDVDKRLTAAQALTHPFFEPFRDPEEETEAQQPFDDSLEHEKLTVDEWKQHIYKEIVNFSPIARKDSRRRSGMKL

[10] = target: Mitogen-activated protein kinase 3 (Homo sapiens) (UniProt P27361); test: Inhibition of ERK1 (unknown origin) at 10 uM after 120 mins P33 radiolabeled kinase activity assay
Sequence of Mitogen-activated protein kinase 3 (Homo sapiens) (P27361 whole entry): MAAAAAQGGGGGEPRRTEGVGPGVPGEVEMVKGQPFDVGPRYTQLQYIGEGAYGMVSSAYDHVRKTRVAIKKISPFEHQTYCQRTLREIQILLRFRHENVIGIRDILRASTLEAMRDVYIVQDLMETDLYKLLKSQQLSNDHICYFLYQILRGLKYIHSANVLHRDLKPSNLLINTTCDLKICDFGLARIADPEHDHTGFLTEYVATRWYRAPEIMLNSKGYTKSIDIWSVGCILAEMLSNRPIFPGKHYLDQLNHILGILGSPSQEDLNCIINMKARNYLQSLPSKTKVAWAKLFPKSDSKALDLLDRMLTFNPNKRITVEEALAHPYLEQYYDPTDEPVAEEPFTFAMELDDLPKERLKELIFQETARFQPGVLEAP

[11] = target: Serine/threonine-protein kinase WNK2 (Homo sapiens) (UniProt Q9Y3S1); test: Inhibition of WNK2 (unknown origin) at 10 uM after 120 mins P33 radiolabeled kinase activity assay
Sequence of Serine/threonine-protein kinase WNK2 (Homo sapiens) (Q9Y3S1 whole entry): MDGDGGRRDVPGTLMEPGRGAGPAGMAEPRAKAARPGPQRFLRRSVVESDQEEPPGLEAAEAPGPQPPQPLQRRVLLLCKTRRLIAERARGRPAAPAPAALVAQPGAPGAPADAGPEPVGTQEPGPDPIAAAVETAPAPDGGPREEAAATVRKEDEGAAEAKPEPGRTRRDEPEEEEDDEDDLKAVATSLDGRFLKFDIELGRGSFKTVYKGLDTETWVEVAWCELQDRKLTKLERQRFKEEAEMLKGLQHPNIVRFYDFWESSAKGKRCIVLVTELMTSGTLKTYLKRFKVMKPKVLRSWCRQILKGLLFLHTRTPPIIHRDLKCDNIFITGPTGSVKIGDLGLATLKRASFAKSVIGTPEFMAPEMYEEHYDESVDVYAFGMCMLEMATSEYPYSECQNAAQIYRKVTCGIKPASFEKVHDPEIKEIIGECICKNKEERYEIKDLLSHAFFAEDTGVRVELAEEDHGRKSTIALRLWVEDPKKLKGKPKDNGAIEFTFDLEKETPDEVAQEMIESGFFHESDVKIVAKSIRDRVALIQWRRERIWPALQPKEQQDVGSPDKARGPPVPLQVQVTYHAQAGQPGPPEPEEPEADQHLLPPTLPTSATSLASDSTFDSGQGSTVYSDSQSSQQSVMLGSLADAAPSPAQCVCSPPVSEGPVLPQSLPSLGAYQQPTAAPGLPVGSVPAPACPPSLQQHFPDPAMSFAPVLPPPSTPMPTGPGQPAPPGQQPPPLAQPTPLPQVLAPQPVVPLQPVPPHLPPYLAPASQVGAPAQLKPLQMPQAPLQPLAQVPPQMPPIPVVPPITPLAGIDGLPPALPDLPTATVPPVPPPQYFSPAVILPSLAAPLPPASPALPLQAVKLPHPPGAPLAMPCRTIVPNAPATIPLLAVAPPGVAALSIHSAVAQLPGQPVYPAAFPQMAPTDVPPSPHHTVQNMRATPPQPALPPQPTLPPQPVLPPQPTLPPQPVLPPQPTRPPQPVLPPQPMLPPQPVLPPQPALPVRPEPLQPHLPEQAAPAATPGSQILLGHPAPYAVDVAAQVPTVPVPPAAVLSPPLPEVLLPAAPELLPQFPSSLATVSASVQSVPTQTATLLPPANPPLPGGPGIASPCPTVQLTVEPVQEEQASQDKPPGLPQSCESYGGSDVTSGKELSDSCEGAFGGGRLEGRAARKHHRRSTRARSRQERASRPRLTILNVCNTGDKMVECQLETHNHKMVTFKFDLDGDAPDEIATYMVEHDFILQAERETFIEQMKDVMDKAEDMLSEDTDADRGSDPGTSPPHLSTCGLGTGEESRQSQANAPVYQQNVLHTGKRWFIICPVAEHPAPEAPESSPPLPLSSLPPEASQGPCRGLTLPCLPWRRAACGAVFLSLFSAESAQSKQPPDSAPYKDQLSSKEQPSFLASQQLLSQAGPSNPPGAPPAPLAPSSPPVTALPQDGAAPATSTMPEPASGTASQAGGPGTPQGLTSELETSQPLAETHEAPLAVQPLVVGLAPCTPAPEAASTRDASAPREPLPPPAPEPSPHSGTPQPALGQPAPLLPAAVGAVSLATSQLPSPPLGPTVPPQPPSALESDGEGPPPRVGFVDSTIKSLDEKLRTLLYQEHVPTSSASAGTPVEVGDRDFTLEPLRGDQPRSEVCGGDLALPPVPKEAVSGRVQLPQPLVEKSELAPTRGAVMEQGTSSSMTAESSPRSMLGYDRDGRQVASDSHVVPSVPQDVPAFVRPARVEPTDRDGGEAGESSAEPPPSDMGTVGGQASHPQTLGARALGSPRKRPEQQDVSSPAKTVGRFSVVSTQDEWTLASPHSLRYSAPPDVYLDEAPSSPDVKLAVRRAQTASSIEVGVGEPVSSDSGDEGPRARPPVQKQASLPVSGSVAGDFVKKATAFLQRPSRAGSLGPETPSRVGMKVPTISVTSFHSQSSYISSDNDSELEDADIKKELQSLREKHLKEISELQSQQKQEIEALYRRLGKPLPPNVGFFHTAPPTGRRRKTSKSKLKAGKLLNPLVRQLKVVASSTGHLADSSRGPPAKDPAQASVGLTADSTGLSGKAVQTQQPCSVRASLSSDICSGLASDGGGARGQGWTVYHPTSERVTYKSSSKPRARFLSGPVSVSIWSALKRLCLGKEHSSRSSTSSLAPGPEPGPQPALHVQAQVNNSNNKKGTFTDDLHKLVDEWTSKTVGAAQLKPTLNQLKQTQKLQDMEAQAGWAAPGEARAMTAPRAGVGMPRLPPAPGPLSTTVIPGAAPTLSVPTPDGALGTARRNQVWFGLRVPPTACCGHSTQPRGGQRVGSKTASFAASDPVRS

[12] = target: Activin receptor type-1-like (Homo sapiens) (UniProt P37023); test: Inhibition of ALK1 (unknown origin) at 10 uM after 120 mins P33 radiolabeled kinase activity assay
Sequence of Activin receptor type-1-like (Homo sapiens) (P37023 whole entry): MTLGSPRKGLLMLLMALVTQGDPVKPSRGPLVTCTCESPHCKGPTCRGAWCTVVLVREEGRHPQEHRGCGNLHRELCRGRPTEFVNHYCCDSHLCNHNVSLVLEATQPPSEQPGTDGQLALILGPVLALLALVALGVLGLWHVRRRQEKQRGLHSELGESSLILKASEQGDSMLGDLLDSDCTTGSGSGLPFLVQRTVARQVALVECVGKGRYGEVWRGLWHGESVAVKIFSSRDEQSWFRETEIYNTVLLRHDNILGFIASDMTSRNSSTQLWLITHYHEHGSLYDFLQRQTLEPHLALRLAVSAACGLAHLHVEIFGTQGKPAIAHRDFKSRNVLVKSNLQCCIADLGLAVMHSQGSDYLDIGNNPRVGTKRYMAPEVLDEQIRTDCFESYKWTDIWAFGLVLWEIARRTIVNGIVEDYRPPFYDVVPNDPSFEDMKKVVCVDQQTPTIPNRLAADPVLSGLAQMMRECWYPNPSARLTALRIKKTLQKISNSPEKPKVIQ

| Structure (SMILES) | inhibition [1] | inhibition [2] | inhibition [3] | inhibition [4] | inhibition [5] | inhibition [6] | inhibition [7] | inhibition [8] | inhibition [9] | inhibition [10] | inhibition [11] | inhibition [12] |
| --- | --- | --- | --- | --- | --- | --- | --- | --- | --- | --- | --- | --- |
| CS(=O)(=O)c1cccc(Nc2nccc(-c3sc(N4CCOCC4)nc3-c3cccc(NS(=O)(=O)c4c(F)cccc4F)c3)n2)c1 | 9.85% | 11% | 97% | -2.43% | 67.7% | 96% | 27.4% | 0.58% | 2% | -3.91% | 43% | 96.2% |
| COCCNC(=O)c1ccc2c(c1)nc(-c1cnc(-c3ccc(Cl)cc3)[nH]1)n2CCOC | 5.69% | 3.77% | 4.86% | -0.94% | -0.19% | 19.4% | 3.88% | 2.89% | 3.01% | 1.41% | 3.46% | 28.2% |
| CC(C)(C)c1cc(NC(=O)Nc2ccc(Oc3ccncc3)cc2)no1 | 4.69% | 15.8% | 20% | -0.89% | 1.8% | 20.3% | 3.87% | 21.6% | 93.4% | 3.03% | 3.16% | 3.54% |

From ChEMBL document CHEMBL3627608, “Crystal structures of human RIP2 kinase catalytic domain complexed with ATP-competitive inhibitors: Foundations for understanding inhibitor selectivity” (Bioorg Med Chem, 2015)
